This note sets out measurements from patent publication US20260097135A1, “MODIFIED ONCOLYTIC HERPES SIMPLEX VIRUS (oHSV) AND METHODS OF USE THEREOF” (The General Hospital Corporation, priority 2022, published 2026).

In this assay the test system is human NK cell line NK-92MI. The experiment in a line: hIL-12 bioactivity: IFN-γ production by NK-92MI cells (ELISA). It is filed as cell-based. The method, then:
HIL12 levels were measured with the human p70 Quantikine ELISA kit (R&D Systems, Bio-Techne, Minneapolis, MN). Functional hIL12 was assessed using human NK cell line NK-92MI (ATCC (CRL-2408)) and hIL-12 induced IFN-γ production. Recombinant hIL12 (R-hIL12; R&D Systems) with known functional activity was used as a positive control. NK-92MI cells were seeded in a 48-well plate at 2×10^4 cells/well. hIL12 produced by virus-infected cells 64 hpi or R-hIL12 was added to NK-92MI cell cultures at the indicated concentrations (with or without 10 μg/ml heparin). HIL12-dependent secretion of IFN-γ into the supernatant was quantified after 24 hrs via ELISA (Human IFN-gamma Quantikine ELISA Kits (R&D systems)).

“Also recorded” adds a separate entry of the source.

heparin: where the note is “heparin 10 μg/ml”, the “effect of heparin on hIL-12-induced IFN-γ” value is reported as “greatly enhanced the activity of hIL12; also recorded: synergizes with hIL-12 in stimulating hIFNγ production”.

B1: R-hIL12: recombinant hIL12 (R&D Systems) with known functional activity, positive control (protein, UniProt P29459 23-219; P29460 23-328, looked up)
Interleukin-12 subunit alpha: RNLPVATPDPGMFPCLHHSQNLLRAVSNMLQKARQTLEFYPCTSEEIDHEDITKDKTSTVEACLPLELTKNESCLNSRETSFITNGSCLASRKTSFMMALCLSSIYEDLKMYQVEFKTMNAKLLMDPKRQIFLDQNMLAVIDELMQALNFNSETVPQKSSLEEPDFYKTKIKLCILLHAFRIRAVTIDRVMSYLNAS
Interleukin-12 subunit beta: IWELKKDVYVVELDWYPDAPGEMVVLTCDTPEEDGITWTLDQSSEVLGSGKTLTIQVKEFGDAGQYTCHKGGEVLSHSLLLLHKKEDGIWSTDILKDQKEPKNKTFLRCEAKNYSGRFTCWWLTTISTDLTFSVKSSRGSSDPQGVTCGAATLSAERVRGDNKEYEYSVECQEDSACPAAEESLPIEVMVDAVHKLKYENYTSSFFIRDIIKPDPPKNLQLKPLKNSRQVEVSWEYPDTWSTPHSYFSLTFCVQVQGKSKREKKDRVFTDKTSATVICRKNASISVRAQDRYYSSSWSEWASVPCS
As for B1, the “hIL-12 induced IFN-γ production by NK-92MI cells” value (hIL-12 from infected Vero supernatants (64 hpi) or recombinant, 24 hrs) is reported as “dose-dependent manner”.
